Reference: patent US6291657A (priority 1993, dated 2001)

Assays:
[1] = tested on: Glc-Cer accumulation in WEHI-3B murine macrophage cells; experiment: In vitro Gaucher's disease model: CBE induced glycolipid storage in WEHI-3B cells, 1D-TLC; type: cell-based; details: for prevention of glycolipid storage in in vitro Gaucher's disease model (in words): CBE
Description: In this model, the murine macrophage cell line WEHI-3B was cultured in the presence of an irreversible glucocerebrosidase inhibitor, conduritol β epoxide (CBE), to mimic the inherited disorder found in Gaucher's disease. WEHI-3B cells are well-known, widely distributed and readily available murine macrophage cells. They are described in Cancer Res. 37, 546-550 (1977), and are readily available from the American Type Culture Collection, Rockville, Md, under accession number ATCC TIB 68. The compounds of the invention prevent lysosomal glycolipid storage which is useful for the management of Gaucher's disease and other glycolipid storage disorders as illustrated hereinafter in Table 3. Gaucher's disease is an autosomal recessive disorder characterized by an impaired ability to degrade glucocerebroside (glucosyl ceramide, Glc-Cer) due to mutations in the gene encoding β-glucocerebrosidase (β-D-glucosyl-N-acylsphingosine glucohydrolase, EC 3.2.1.45). This defect results in the lysosomal accumulation of Glc-Cer in cells of the macrophage-monocyte system [Barranger and Ginns, in The Metabolic Basis of Inherited Diseases, ed. Scriver et al., pp. 1677-1698, McGraw-Hill, New York, (1989); Beutler, Science 256, 794-799 (1992)]. By slowing the rate of glycolipid synthesis, the impaired catabolism of Glc-Cer can be offset, thereby leading to the maintenance of a balanced level of Glc-Cer.
FIGS. 5 and 6 show the analysis of NB-DNJ and NB-DGJ in an in vitro Gaucher's disease model.
The in vitro Gaucher's disease model was prepared as follows: WEHI-3B cells (American Type Culture Collection, Rockville, Md., U.S.A.) were maintained in logarithmic phase growth for 14 days in RPMI-1640 medium, 10% FCS, in the presence or absence of 50 μM conduritol β epoxide (CBE, Toronto Research Chemicals, Downsview, Canada) with or without NB-DNJ or NB-DGJ. Cells were passaged every 3 days and compound concentrations maintained throughout. Equal cell numbers (5×10^6) were harvested, extracted in 1 ml chloroform: methanol (2:1 v/v) overnight at 4° C., the extracts centrifuged, the chloroform:methanol extract retained and the pellet re-extracted as above for 2 hr. at room temperature. Pooled extracts were dried under nitrogen, re-dissolved in 10 μl chloroform:methanol (2:1 v/v) and separated by 1D-TLC in chloroform:methanol:water […]. Plates were air dried and visualized using α-naphthol (1% w/v in methanol) followed by 50% (v/v) sulphuric acid.

[2] = tested on: α-glucosidase I and II; experiment: Inhibition of purified processing α-glucosidase I and II; type: biochemical; details: for inhibition of processing α-glucosidases I and II / N-linked oligosaccharide processing: in words
Description: Porcine liver α-glucosidase I and rat liver α-glucosidase II were purified to homogeneity and assayed by conventional procedure using a [^14 C]-glucose labelled Glc3 Man9 GlcNAc2 substrate as previously described by Karlsson et al., J. Biol. Chem. 268, 570-576 (1993).
Enzymes were assayed according to procedure described hereinbefore using
The data from FIG. 8 were […]

**Q.** What does the source list for CCCCN1C[C@H](O)[C@@H](O)[C@@H](O)[C@H]1CO [NB-DGJ, N-butyl deoxygalactonojirimycin]?
**A.** prevention of glycolipid storage in in vitro Gaucher's disease model (in words) [1]: as effective as NB-DNJ; prevention of glycolipid storage in in vitro Gaucher's disease model (in words) ([1]; listed as N-butyl DGJ): offset glucoceramide accumulation; minimal effective concentration ([1]; Mus musculus, WEHI3B, 336 h, 50 μM CBE, 14 days (FIG. 5), read-out: dose range preventing CBE induced glycolipid storage): 5 to 50 µM; inhibition of processing α-glucosidases I and II / N-linked oligosaccharide processing [2]: does not inhibit N-linked oligosaccharide processing; inhibition of processing α-glucosidases I and II / N-linked oligosaccharide processing ([2]; listed as N-butyl DGJ): does not inhibit; IC50 ([2]; mixture of purified α-glucosidases I and II): 2.13 mM
